Laboratory results from patent US7531546B2, “Spiro-substituted pyrrolo[2,3-D]pyrimidines as cathepsin inhibitors” (Novartis AG, priority 2003, dated 2009).
pIC50: −log10 of the molar value.

Key:
[1] = target: recombinant human cathepsin S (Homo sapiens, UniProt P25774); assay: in vitro inhibition of recombinant human cathepsin S; format: biochemical; settings: recombinant enzyme 0.04 nM, substrate Z-Leu-Leu-4-methylcoumaryl-7-amide, pH 7.0, fluorescence readout
Method: The in vitro assay is carried out in clear, flat-bottomed, 96-well microtiter plates (Greiner GmbH, Germany) at ambient temperature using recombinant human cathepsin S. Inhibition of human cathepsin S is assayed at a constant enzyme and various substrate concentrations (substrate is Z-Leu-Leu-4-methylcoumaryl-7-amide (Bachem (Switzerland)) in 100 parts 0.2M sodium phosphate, pH 7.0, containing 2 mM EDTA, 2 parts 1% Triton X-100, 10 parts 20 mM dithiothreitol (DTT) and 58 parts distilled water. The assay is started by adding the enzyme solution (13 times higher concentration of final concentration of recombinant human Cathepsin S) to the reaction mixture containing various concentrations of the corresponding substrate and the compound. Substrate concentrations between 3.4 and 17 μM are used. The recombinant human Cathepsin S is used at a final concentration of 0.04 nM. Test compounds are used at concentrations between 0.4 and 2 times the determined IC50 of the compound at the enzyme. The relative fluorescence is continuously measured for 30 minutes and the initial velocity is obtained from each progress curve. […]

[2] = target: T1, recombinant human cathepsin K (Homo sapiens, UniProt P43235); assay: in vitro inhibition of recombinant human cathepsin K; format: biochemical; settings: recombinant enzyme, substrate Z-Phe-Arg-AMCA, pH 7.0, 30 min preincubation, fluorescence readout
T1 sequence (P43235 115-329): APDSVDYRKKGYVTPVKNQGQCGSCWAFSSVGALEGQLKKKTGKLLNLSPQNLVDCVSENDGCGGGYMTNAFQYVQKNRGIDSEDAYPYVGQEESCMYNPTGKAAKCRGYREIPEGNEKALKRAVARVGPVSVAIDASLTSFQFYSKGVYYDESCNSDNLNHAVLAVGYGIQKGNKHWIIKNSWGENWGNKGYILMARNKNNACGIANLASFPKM
Method: The in vitro assay is carried out as follows:
The assay is performed in 96 well microtiter plates at ambient temperature using recombinant human cathepsin K. Inhibition of cathepsin K is assayed at a constant enzyme (0.16 nM) and substrate concentration ([…] Z-Phe-Arg-AMCA—Peptide Institute Inc. Osaka, Japan) in 100 mM sodium phosphate buffer, pH 7.0, containing 2 mM dithiothreitol, 20 mM Tween 80 and 1 mM EDTA. Cathepsin K is preincubated with the inhibitors for 30 min, and the reaction is initiated by the addition of substrate. After 30 min incubation the reaction is stopped by the addition of E-64 (2 mM), and fluorescence intensity is read on a multi-well plate reader at excitation and emission wavelengths of 360 and 460 nm, respectively.

Sequence of recombinant human cathepsin S (P25774 115-331): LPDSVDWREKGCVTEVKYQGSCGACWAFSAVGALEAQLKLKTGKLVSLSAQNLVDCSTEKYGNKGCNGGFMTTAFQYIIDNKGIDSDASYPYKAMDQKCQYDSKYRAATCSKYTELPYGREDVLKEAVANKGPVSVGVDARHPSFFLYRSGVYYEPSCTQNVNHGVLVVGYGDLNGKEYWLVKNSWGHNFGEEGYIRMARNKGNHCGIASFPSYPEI

pIC50 [1] | pIC50 [2] | Compound
8.00 | 7.80 | CC(=O)N1CCC2(CC1)C(=O)N(Cc1cc3cnc(C#N)nc3n1CCC(C)(C)C)c1ccccc12 [Example 4-9]
8.22 | 8.10 | CC(C)(C)CCn1c(CN2CCC3(CCN(S(C)(=O)=O)CC3)C2)cc2cnc(C#N)nc21 [Example 4-3]
~8.05 |  | CC(=O)N1CCC2(CC1)C(=O)N(Cc1cc3cnc(C#N)nc3n1CCC1CCCCC1)c1ccccc12 [Example 4-8]
 | ~9.80 | CC(C)(C)Cn1c(CN2C(=O)CC3(CCNCC3)C2=O)cc2cnc(C#N)nc21 [Example 3-0, 7-(2,2-Dimethyl-propyl)-6-(1,3-dioxo-2,8-diaza-spiro[4.5]dec-2-ylmethyl)-7H-pyrrolo[2,3-d]pyrimidine-2-carbonitrile]
